Results as given in ChEMBL document CHEMBL3045626, “Interaction of 2-(4-Methylphenoxy)triethylamine and Related Compounds with Its Herbicide Target in the Carotenoid Biosynthetic Pathway” (J Pestic Sci, 1998).
pIC50: −log10 of the molar value.

Key:
[1] = molecular target: T1, Lycopene beta-cyclase (Pantoea ananas) (UniProt P21687); test: Inhibition of Pantoea ananatis lycopene cyclase assessed as residual enzyme activity at 0.5 mM
T1 sequence (whole entry): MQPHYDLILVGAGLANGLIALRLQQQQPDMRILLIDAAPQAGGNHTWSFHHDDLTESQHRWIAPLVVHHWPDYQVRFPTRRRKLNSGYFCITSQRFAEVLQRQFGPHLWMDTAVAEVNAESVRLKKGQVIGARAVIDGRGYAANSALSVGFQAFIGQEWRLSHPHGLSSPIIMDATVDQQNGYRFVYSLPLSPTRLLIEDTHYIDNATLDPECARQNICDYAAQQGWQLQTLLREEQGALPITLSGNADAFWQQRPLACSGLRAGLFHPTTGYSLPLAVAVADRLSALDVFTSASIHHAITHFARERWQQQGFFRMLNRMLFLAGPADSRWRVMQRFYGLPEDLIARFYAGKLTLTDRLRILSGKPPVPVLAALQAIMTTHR

Lycopene beta-cyclase = molecular target: T2, Lycopene beta-cyclase (Pantoea ananas, UniProt P21687); test: Inhibition of Pantoea ananatis lycopene cyclase; settings: read-out: I50
T2 sequence (P21687 whole entry): T1 sequence (whole entry)

[2] = molecular target: T1, Lycopene beta-cyclase (Pantoea ananas); test: Inhibition of Pantoea ananatis lycopene cyclase assessed as residual enzyme activity at 10 mM

Row | Compound | Activity [1] [%] | pIC50 (Lycopene beta-cyclase) | Activity [2] [%]
1 | CCN1C(=O)C=CC1=O | 83 |  | 
2 | NC(=O)CI | 87 |  | 
3 | CC(=O)C(C)=O | 90 |  | 
4 | CCN(CC)CCOc1ccc(C)cc1 |  | 4.92 | 
5 | O=CC(=O)c1ccccc1 | 92 |  | 
6 | Cc1cc(OC(=O)N2CCCCC2)c(C(C)C)cc1[N+](C)(C)C |  |  | 36
7 | CN1CCC[C@H]1c1cccnc1 [NICOTINE] |  | 5.32 | 64
